Experiments:
A. aegypti eggs = experiment: Mosquito egg bioassay in spot plates, probit analysis; assay type: in vivo, Aedes aegypti
Protocol: A. aegypti eggs were obtained from the Center for Disease control in Fort Collins, Colo. The eggs were counted and transferred to spot plate treatment or control wells, and placed in an incubator. Larvae were counted as living, hatched dead, or unhatched dead 72 hours after the bioassay was initiated. […] The LC95 for A. aegypti was 470 ppm.

[1] = system: Non-biting midge eggs (Chironomidae: Tanypodinae); details: a week, 30° C., probit analysis
Protocol: Non-biting midge eggs (Chironomidae: Tanypodinae) were obtained from the pond at Town Park, Auburn, Ala. The eggs were counted and transferred to spot plates containing 8 ml of NaDCC anhydrous solution at 0, 50, 500, 5000, and 50,000 ppm. Each treatment and control was replicated 3 times within the same spot plate and transferred to an incubator set for 30° C. and 12 hours of light and dark alterations for a week. Data were analyzed by probit analysis with the PROBIT Procedure in SAS (Version 9.2, Cary N.C.). Larvae were only counted as hatched if they were completely free from their egg casing.

[2] = system: Culex quinquefasciatus eggs; experiment: Mosquito egg bioassay in spot plates, probit analysis; assay type: in vivo
Protocol: Mosquito eggs were obtained from the Center for Disease control in Fort Collins, Colo. The eggs were counted and transferred to spot plates containing 8 ml of NaDCC anhydrous solution at 0, 50, 500, 5000, and 50,000 ppm. Each treatment concentration and control (0 ppm) was replicated 3 times within the same spot plate and transferred to an incubator set for 30° C. and 12 hrs of light and dark alterations for 25 hours. […] Larvae were counted as living, hatched dead, or unhatched dead 25 hrs after the bioassay was initiated. Larvae were only counted as hatched if they were completely free from their egg casing. Data were analyzed by probit analysis with the PROBIT Procedure in SAS (Version 9.2, Cary N.C.), producing an LC95 and natural response rate.

Anopheles stevensi eggs = details: 72 hrs, 30° C., probit analysis
Protocol: Data were analyzed by probit analysis with the PROBIT Procedure in SAS (Version 9.2, Cary N.C.).

[3] = system: cyanobacterium Oscillatoria sp.; details: 1.2 g NaDCC per enclosure (Example 6)
[4] = system: toxic cyanobacterium Oscillatoria sp.; details: 1.6 g NaDCC per enclosure of about 270 liter (Example 5)
[5] = Dissolution study: release of free available chlorine / NaDCC from floating pellets in deionized water (orthotolidine colorimetry, 436 nm); assay type: physicochemical
Protocol: The ability of the pellet to release free available chlorine from the water soluble NaDCC was measured over time using a colorimeric method. Three pellets were selected at random from the kilogram batch that was created. The dimensions and mass of each pellet was recorded and the pellets were added to an 800 ml high density polyethylene (HDPE) beaker filled with deionized water and covered with aluminum foil. NaDCC (0.1975 g) was added to a separate 800 ml plastic beaker as a control. 0.8 ml aliquots of each solution were pipetted into 50 ml volumetic flasks and brought to volume with deionized water. 10 ml aliquots of these diluted solutions were mixed with 100 μl of 0.1% orthotolidine in a vial, forming a clear, yellow solution. The solution was loaded into a cuvette and was analyzed using a Shimadzu UV160U UV-Vis Spectrophotometer at 436 nm.
Initial sample pulls occurred 15 minutes after the pellets and control sample were added to the water. Additional pulls were taken at about 2, 9, 11, 13, 15, 17, 24, and 36 hours.
Upon exposure to water, NaDCC breaks down to release free available chlorine that acts as an algae growth inhibitor. Orthotolidine reacts with the chlorine causing a color change allowing for colorimetic analysis to chart the dissolution of the NaDCC. The concentration of NaDCC released at each time point was calculated by constructing a calibration curve relating the free available chlorine response to the initial concentration of NaDCC. The initial concentration of NaDCC calculation is shown in Equation 1. The original aliquot of the control taken at the 15 minute mark was used to create standards ranging from 25-250 ppm. Concentration of initial NaDCC=initial mass of NaDCC/volume of deionized water Equation 1: 197.5 mg/0.800 L=246.9 ppm

[6] = system: non-motile eggs of the insects; experiment: Concentrated hypochlorite on insect egg hatching; assay type: in vivo; details: 250-500 ppm of concentrated hypochlorite
Excerpt: In certain aspects the methods of the present invention target the non-motile eggs of the insects. 250-500 ppm of concentrated hypochlorite caused 95% of egg populations not to hatch.

O=c1nc([O-])n(Cl)c(=O)n1Cl.[Na+] [NaDCC anhydrous, Sodium Dichloroisocyanurate (NaDCC) Anhydrous]
state of egg shells (A. aegypti eggs; 5000 ppm treatment): mostly dissolved
state of egg shells (A. aegypti eggs; 50,000 ppm treatment): dissolved and unperceivable
LC95 (A. aegypti eggs; 72 hours, probit analysis): 470 ppm
LC95 [1]: 205.7 ppm
state of egg shells ([2]; 5000 ppm treatment): mostly dissolved
state of egg shells ([2]; 50,000 ppm treatment): dissolved and unperceivable
LC95 ([2]; 25 hrs, 30° C., probit analysis): 93.8 ppm
LC95 (Anopheles stevensi eggs): 270 ppm

O=c1nc([O-])n(Cl)c(=O)n1Cl.[Na+] [NaDCC, sodium dichloroisocyanurate]
effect on cyanobacterial infestation [3]: total elimination of the cyanobacterial infestation
effect on cyanobacterial infestation [4]: total elimination of the cyanobacterial infestation
Concentration of NaDCC released ([5]; 0.25 hours): 241.5 ppm
Response ([5]; 0.25 hours, 436 nm, orthotolidine, 800 ml deionized water): 2.053 AU
Concentration of NaDCC released ([5]; 2.17 hours): 228.4 ppm
Response ([5]; 2.17 hours): 1.941 AU
Concentration of NaDCC released ([5]; 9.17 hours): 237.9 ppm
Response ([5]; 9.17 hours): 2.022 AU
Concentration of NaDCC released ([5]; 11.00 hours): 215.4 ppm
Response ([5]; 11.00 hours): 1.831 AU
Concentration of NaDCC released ([5]; 13.42 hours): 238.8 ppm
Response ([5]; 13.42 hours): 2.030 AU
Concentration of NaDCC released ([5]; 15.42 hours): 233.9 ppm
Response ([5]; 15.42 hours): 1.988 AU
Concentration of NaDCC released ([5]; 17.67 hours): 231.5 ppm
Response ([5]; 17.67 hours): 1.968 AU
Concentration of NaDCC released ([5]; 24.00 hours): 217.6 ppm
Response ([5]; 24.00 hours): 1.850 AU
Concentration of NaDCC released ([5]; 36.00 hours): 237.1 ppm
Response ([5]; 36.00 hours): 2.015 AU

OCl [hypochlorite]
egg populations not hatching [6]: 95%

— US11019823B2, “Method of controlling water surface inhabiting pests” (SHA'KED MICROBIAL SOLUTIONS LTD., priority 2013, dated 2021)
